Assay results published in patent publication US7130746B2, “Computer systems and computer programs for determining protein activity levels using gene expression profiles” (priority 1998, dated 2006).

What was measured:
wild type yeast cells = details: 10 micrograms/ml doxycycline (Gari et al., 1997); cited from earlier work
yeast gene YOL031C = assay: Transcript array gene expression response to methotrexate, Hill function fit; format: cell-based, Saccharomyces cerevisiae
Excerpt: FIG. 2 illustrates an example of perturbation response profiles measured at discrete protein activity levels of dihydrofolate reductase. Specifically, the figure illustrates mRNA expression levels of 30 genes of the yeast Saccharomyces cerevisiae that, of the 6000 genes in the genome of this yeast, had the largest expression changes in response to six different titrations of the drug methotrexate, which is known to act primarily by disrupting the activity of dihydrofolate reductase. These gene expression level measurements were made with gene transcript arrays, as described in Section 5.5. The perturbation response profiles in FIG. 2 can be interpolated according to the methods disclosed in Section 5.4, below, to provide perturbation response profiles for any activity level of dihydrofolate reductase, i.e., perturbation response curves.
In model fitting, the perturbation responses are interpolated by approximating each by a single parameterized function. An exemplary model-fitting function appropriate for approximating transcriptional state data is the Hill function, which has adjustable parameters a, u0 and n.
[formula] the adjustable parameters are selected independently for each cellular constituent of the perturbation response. Preferably, the adjustable parameters are selected so that for each cellular constituent the sum of the squares of the distances H(pl) from Rk(pl) is minimized. This preferable parameter adjustment method is known in the art as a least squares fit of H( ) to Rk( ). Other possible model functions are based on polynomial fitting, for example by various known classes of polynomials.
Model fitting with a Hill function is illustrated with respect to FIGS. 2 and 4. As discussed, FIG. 2 illustrates an example of perturbation by methotrexate and identified by measurement. This figure illustrates the RNA expression levels of 30 genes of the yeast S. cerevisiae that, of the approximately 6000 genes in the genome of this organism, had the largest expression changes in response to six different exposure levels of methotrexate. […]

[1] = system: yeast Saccharomyces cerevisiae; assay: Yeast growth under methotrexate titration; format: cell-based; details: 100 μM methotrexate titration

For `C[C@H]1c2cccc(O)c2C(=O)C2=C(O)[C@]3(O)C(=O)C(C(N)=O)=C(O)[C@@H](N(C)C)[C@@H]3[C@@H](O)[C@@H]21` [doxycycline], which “effect on growth rate” value (wild type yeast cells) is on record?
The value was “no significant effect”.

With `CN(Cc1cnc2nc(N)nc(N)c2n1)c1ccc(C(=O)N[C@@H](CCC(=O)O)C(=O)O)cc1` [methotrexate] as the compound, how does the “Hill function parameter n” value (yeast gene YOL031C; least squares fit of YOL031C expression response) read?
Its value is 2.

What about the “Hill function parameter a” value (yeast gene YOL031C; least squares fit of YOL031C expression response (log10 expression ratio)) of the same compound?
The value was −0.61.

And the “Hill function parameter log10(u0)” value (yeast gene YOL031C; least squares fit of YOL031C expression response, methotrexate exposures 3-200 μM)?
The value was 1.26.

And the growth defect [1]?
Its growth defect is 50%.
